Common to all, as to type: physicochemical
One data set is described as follows: water solubility. As to conditions: 37° C., pH 6 to 7. An excerpt: (§1) Compound I can be produced, for example, by the method described in Example 3 (Compound 7) of WO2014/092061.
The nature of the next data set: pKa values.
Text: as §1
In the present invention, the “base” preferably has a pKa value greater than that of Compound I. Since the lower pKa value of Compound I is about 8, the bases that can be used in the present invention desirably have a pKa value that is preferably more than about 9, even more preferably more than about 10, and most preferably more than about 11. Here, the term pKa is used in its conventional form. That is, pKa is the negative logarithm of the ionization constant of the acid. Unless otherwise specified, pKa is assumed to be measured in distilled water at 25° C.

The nature of data set [1]: solubility in FaSSIF (excess amount, stirring 24 hours or more, centrifugation, HPLC). As for the experimental part: A suitable FaSSIF is, for example, an aqueous solution containing 28.7 mM potassium dihydrogen phosphate (KH2PO4), 103.3 mM KCl, 3 mM sodium taurocholate, and 0.8 mM L-α-phosphatidylcholine, and adjusted to pH 6.5 using NaOH.
Furthermore, for the purpose of evaluating the solubility of the type I crystal of the free form of Compound I in FaSSIF, an excess amount of the type I crystal of the free form of Compound I was placed in FaSSIF, and after soaking and stirring at 37° C. for 24 hours or more, this was subjected to centrifugation. […] In addition, the solubility of the type II crystal of the free form of Compound I evaluated in the same manner was 2 μg/mL.

Data set [2] in a line: organic solvent solubility. As to conditions: for solubility: organic solvent or mixture. As to the method:
as §1
A solvent suitable for solvent treatment may be any compound in which drugs, polymers, and bases are mutually soluble. Preferably, the solvent is also volatile and has a boiling point of 150° C. or lower. Furthermore, the solvent should have relatively low toxicity and should be removed from the solid dispersion to a level that is acceptable according to the guidelines of the International Council for Harmonization of Technical Requirements for Pharmaceuticals for Human Use (ICH). Removal of the solvent to this level may require a subsequent processing step such as tray-drying. Preferred solvents include alcohols such as methanol, ethanol, n-propanol, iso-propanol, and butanol; ketones such as acetone, methyl ethyl ketone, and methyl iso-butyl ketone; esters such as ethyl acetate and propyl acetate; and various other solvents, such as acetonitrile, methylene chloride, toluene, 1,1,1-trichloroethane, and tetrahydrofuran. Low-volatility solvents such as dimethylacetamide or dimethylsulfoxide can also be used in small amounts in mixtures with volatile solvents. A mixture of solvents such as 50% methanol and 50% acetone can also be used in the same manner as a mixture with water. Preferred solvents are ethanol, methanol, acetone, tetrahydrofuran, ethyl acetate, mixtures of these with water, and mixtures thereof. […] In particular, tetrahydrofuran and its mixed liquids can be referred to as preferred solvents.

The nature of data set [3]: storage stability of crystals.

SMILES strings stand for the structures. In brackets after ≈: the same amount, converted by molar mass. A value given as a limit tells only on which side of the number the result lay.

One may read the solubility as how much of the substance goes into solution per volume. For orientation: pKa means the negative logarithm of the acid dissociation constant. Low readings indicate a group that gives up its proton readily, high ones a group that holds its proton tightly. For the compound `Cc1cc(N2C(=O)NC(=O)C2(C)C)cc(C)c1CCS(=O)(=O)N1CCC2(CC1)N=C(c1ccc(OC(F)(F)F)cc1)NC2=O`, the solubility in “water solubility” is under 0.001 mg/mL; in data set [1] (FaSSIF, 37 °C, pH 6.5, fassif, thermodynamic from solid) it was 0.001 mg/mL (≈ 1.57 µM). Moreover, the pKa in “pKa values” (distilled water) was 8.
Take `Cc1cc(N2C(=O)NC(=O)C2(C)C)cc(C)c1CCS(=O)(=O)N1CCC2(CC1)N=C(c1ccc(OC(F)(F)F)cc1)NC2=O` [Compound I, 1-(3,5-dimethyl-4-(2-((4-oxo-2-(4-(trifluoromethoxy)phenyl)-1,3,8-triazaspiro[4.5]deca-1-en-8-yl)sulfonyl)ethyl)phenyl)-5,5-dimethylimidazolidine-2,4-dione]: the solubility in data set [2] (acetone/water mixture (95:5 v/v), volume ratio 95:5, read-out: solubility in a mixed solution of acetone and water) is at least 50 mg/mL; in data set [2] (tetrahydrofuran, room temperature, read-out: solubility in THF (tetrahydrofuran)), at least 80 mg/mL; in data set [2] (tetrahydrofuran/methanol mixture (95:5 v/v), volume ratio 95:5, read-out: solubility in a mixed solution of tetrahydrofuran and methanol) it was at least 100 mg/mL. Besides, in the data set “pKa values”, the pKa values entry is on record as “about 8”.
For `Cc1cc(N2C(=O)NC(=O)C2(C)C)cc(C)c1CCS(=O)(=O)N1CCC2(CC1)N=C(c1ccc(OC(F)(F)F)cc1)NC2=O` [type I crystal of the free form of Compound I], the “solubility in THF (tetrahydrofuran)” value in data set [2] (room temperature) is listed as at least 80 mg/mL. In data set [3], the storage stability result is “excellent storage stability”.
In the case of `Cc1cc(N2C(=O)NC(=O)C2(C)C)cc(C)c1CCS(=O)(=O)N1CCC2(CC1)N=C(c1ccc(OC(F)(F)F)cc1)NC2=O` [type II crystal of the free form of Compound I], the “solubility in FaSSIF” value in data set [1] (37° C.) came out at 0.002 mg/mL (≈ 3.15 µM).

(Values after US20210290541A1, “SOLID DISPERSION OF HYDANTOIN DERIVATIVE” (Chugai Seiyaku Kabushiki Kaisha, priority 2018, published 2021).)
